{"source": "patent US20250311722A1", "about": "“IMPROVED BIOCIDE” (Purgos ApS, priority 2022, published 2025)", "key": {"bacteria [1]": {"tested_on": "bacteria", "assay": "2,2′-(octylimino)bisethanol in contaminated solution of polyisocyanate crosslinker, 32° C., cATP (LuminUltra)", "type": "cell-based", "settings": "for bacteria count: 32° C.", "description": "For further analysing the biocidal effect of 2,2′-(octylimino)bisethanol, a solution of 2,2′-(octylimino)bisethanol was added into a contaminated solution of polyisocyanate crosslinker in two different concentrations of 0.50% and 1.00%, incubated at 32° C. and analysed for microbial activity and microbial contamination using […] Adenosine Triphosphate cATP as a measure of microbial contamination using LuminUltra® microbial monitoring system."}, "bacteria [2]": {"tested_on": "bacteria", "assay": "2,2′-(octylimino)bisethanol in common surfactant/soap, at 32° C., cATP (LuminUltra)", "type": "cell-based", "description": "(§1) A solution of 2,2′-(octylimino)bisethanol was added to two different solutions comprising two different surfactants, in two different concentrations of 0.50% and 1.00%. The four different solutions incubated at 32° C. and analysed for microbial activity and microbial contamination using […] Adenosine Triphosphate cATP as a measure of microbial contamination using LuminUltra® microbial monitoring system (see e.g. Examples 1, 5 and 6). The results are summarized in tables XXV and XXVI, where “additive” refers to 2,2′-(octylimino)bisethanol."}, "[3]": {"settings": "cited from earlier work"}, "bacteria [4]": {"tested_on": "bacteria", "assay": "2,2′-(octylimino)bisethanol in K-Oleate, incubated at 32° C., cATP (LuminUltra)", "type": "cell-based", "description": "as §1"}, "[5]": {"settings": "0.50% in common surfactant/soap"}, "[6]": {"settings": "1.00% in common surfactant/soap"}}}
{"smiles": "CCCCCCCCN(CCO)CCO", "note": "[2,2′-(octylimino)bisethanol]", "values": [{"measurement": "bacteria count", "setting": "bacteria [1]; 0.50%, 1 day after adding additive", "result": 226}, {"measurement": "bacteria count", "setting": "bacteria [1]; 0.50%, after 1 month", "result": 20}, {"measurement": "bacteria count", "setting": "bacteria [1]; 0.50%, after 1 week", "result": 20}, {"measurement": "bacteria count", "setting": "bacteria [1]; 0.50%, after 3 months", "result": 282}, {"measurement": "bacteria count", "setting": "bacteria [1]; 0.50%, after 6 months", "result": 0}, {"measurement": "bacteria count", "setting": "bacteria [1]; 1.00%, 1 day after adding additive", "result": 174}, {"measurement": "bacteria count", "setting": "bacteria [1]; 1.00%, after 1 month", "result": 155}, {"measurement": "bacteria count", "setting": "bacteria [1]; 1.00%, after 1 week", "result": 180}, {"measurement": "bacteria count", "setting": "bacteria [1]; 1.00%, after 3 months", "result": 0}, {"measurement": "bacteria count", "setting": "bacteria [1]; 1.00%, after 6 months", "result": 0}, {"measurement": "effectiveness as a biocide", "setting": "bacteria [1]; as low concentration as 0.50%, all three test solutions, long term (at least 6 months)", "result": "highly effective as a biocide"}, {"measurement": "BSI (1 day after adding additive)", "setting": "bacteria [2]; [5]", "result": 18}, {"measurement": "BSI (after 1 month)", "setting": "bacteria [2]; [5]", "result": 47}, {"measurement": "BSI (after 1 week)", "setting": "bacteria [2]; [5]", "result": 14}, {"measurement": "BSI (after 3 months)", "setting": "bacteria [2]; [5]", "result": 75}, {"measurement": "BSI (after 9 months)", "setting": "bacteria [2]; [5]", "result": 90.8}, {"measurement": "bacteria count (1 day after adding additive)", "setting": "bacteria [2]; [5]", "result": 917}, {"measurement": "bacteria count (after 1 month)", "setting": "bacteria [2]; [5]", "result": 360}, {"measurement": "bacteria count (after 1 week)", "setting": "bacteria [2]; [5]", "result": 5040}, {"measurement": "bacteria count (after 3 months)", "setting": "bacteria [2]; [5]", "result": 28.5}, {"measurement": "bacteria count (after 6 months)", "setting": "bacteria [2]; [5]", "result": 0}, {"measurement": "bacteria count (after 9 months)", "setting": "bacteria [2]; [5]", "result": 7.5}, {"measurement": "BSI (1 day after adding additive)", "setting": "bacteria [2]; [6]", "result": 18}, {"measurement": "BSI (after 1 month)", "setting": "bacteria [2]; [6]", "result": 80}, {"measurement": "BSI (after 1 week)", "setting": "bacteria [2]; [6]", "result": 13}, {"measurement": "BSI (after 3 months)", "setting": "bacteria [2]; [6]", "result": 53.1}, {"measurement": "BSI (after 6 months)", "setting": "bacteria [2]; [6]", "result": 55.6}, {"measurement": "BSI (after 9 months)", "setting": "bacteria [2]; [6]", "result": 39.2}, {"measurement": "bacteria count (1 day after adding additive)", "setting": "bacteria [2]; [6]", "result": 369}, {"measurement": "bacteria count (after 1 month)", "setting": "bacteria [2]; [6]", "result": 2.6}, {"measurement": "bacteria count (after 1 week)", "setting": "bacteria [2]; [6]", "result": 141}, {"measurement": "bacteria count (after 3 months)", "setting": "bacteria [2]; [6]", "result": 20.7}, {"measurement": "bacteria count (after 6 months)", "setting": "bacteria [2]; [6]", "result": 5.86}, {"measurement": "bacteria count (after 9 months)", "setting": "bacteria [2]; [6]", "result": 10.5}, {"measurement": "solubility in water", "setting": "[3]", "result": 1400, "unit": "µg/mL"}, {"measurement": "solubility in water (words)", "setting": "[3]", "result": "water dispersible"}, {"measurement": "BSI (1 day after adding additive)", "setting": "bacteria [4]; 0.50% in K-Oleate", "result": 29}, {"measurement": "BSI (after 1 month)", "setting": "bacteria [4]; 0.50% in K-Oleate", "result": 68}, {"measurement": "BSI (after 1 week)", "setting": "bacteria [4]; 0.50% in K-Oleate", "result": 52}, {"measurement": "BSI (after 3 months)", "setting": "bacteria [4]; 0.50% in K-Oleate", "result": 80.1}, {"measurement": "BSI (after 9 months)", "setting": "bacteria [4]; 0.50% in K-Oleate", "result": 81.3}, {"measurement": "bacteria count (1 day after adding additive)", "setting": "bacteria [4]; 0.50% in K-Oleate", "result": 789}, {"measurement": "bacteria count (after 1 month)", "setting": "bacteria [4]; 0.50% in K-Oleate", "result": 215}, {"measurement": "bacteria count (after 1 week)", "setting": "bacteria [4]; 0.50% in K-Oleate", "result": 758}, {"measurement": "bacteria count (after 3 months)", "setting": "bacteria [4]; 0.50% in K-Oleate", "result": 88}, {"measurement": "bacteria count (after 6 months)", "setting": "bacteria [4]; 0.50% in K-Oleate", "result": 0}, {"measurement": "bacteria count (after 9 months)", "setting": "bacteria [4]; 0.50% in K-Oleate", "result": 30}, {"measurement": "BSI (1 day after adding additive)", "setting": "bacteria [4]; 1.00% in K-Oleate", "result": 35}, {"measurement": "BSI (after 1 month)", "setting": "bacteria [4]; 1.00% in K-Oleate", "result": 71}, {"measurement": "BSI (after 1 week)", "setting": "bacteria [4]; 1.00% in K-Oleate", "result": 43}, {"measurement": "BSI (after 3 months)", "setting": "bacteria [4]; 1.00% in K-Oleate", "result": 82.4}, {"measurement": "BSI (after 6 months)", "setting": "bacteria [4]; 1.00% in K-Oleate", "result": 30.6}, {"measurement": "BSI (after 9 months)", "setting": "bacteria [4]; 1.00% in K-Oleate", "result": 88.8}, {"measurement": "bacteria count (1 day after adding additive)", "setting": "bacteria [4]; 1.00% in K-Oleate", "result": 284}, {"measurement": "bacteria count (after 1 month)", "setting": "bacteria [4]; 1.00% in K-Oleate", "result": 50}, {"measurement": "bacteria count (after 1 week)", "setting": "bacteria [4]; 1.00% in K-Oleate", "result": 176}, {"measurement": "bacteria count (after 3 months)", "setting": "bacteria [4]; 1.00% in K-Oleate", "result": 39}, {"measurement": "bacteria count (after 6 months)", "setting": "bacteria [4]; 1.00% in K-Oleate", "result": 629}, {"measurement": "bacteria count (after 9 months)", "setting": "bacteria [4]; 1.00% in K-Oleate", "result": 13}]}
